# Assay results reported in patent publication US9034886B2, “4-aminoquinazoline derivatives and uses thereof” (Shanghai Institute of Pharmaceutical Industry, priority 2011, dated 2015).
# What was measured:
# [1] = tested on: Hut78 T lymphocytic leukemia cells; experiment: In vitro anti-proliferative effect, CCK-8 method, Hut78; assay type: cell-based; details: Homo sapiens, HuT78, read-out: Hut-78 (inhibition %)
# Protocol: (§1) The inhibitory activities of the compounds towards Hut78 T lymphocytic leukemia cells, Jurkat E6-1 human T-cell lymphoma, PANC-1 human pancreatic cancer cells, A549 human lung cancer cells, K562 human chronic myelogenous leukemia cells, Hep3B2.1-7 human liver cancer cells, MDA-MB-435s human breast cancer cells. Colo320 human colorectal cancer cell lines, and PC-3 human prostate cancer at two concentrations of 100 μM and 10 μM were determined. The inhibition percentages were obtained through CCK-8 method.
# [2] = tested on: Colo320 human colorectal cancer cell lines; experiment: In vitro anti-proliferative effect, CCK-8 method, Colo320; assay type: cell-based; details: Homo sapiens, COLO 320, Colo320 cell strain, CCK-8 method; for inhibition at 10 µM: compound at 10 μM; for inhibition at 100 µM: compound at 100 μM
# Protocol: as §1
# [3] = tested on: PANC-1 human pancreatic cancer cells; experiment: In vitro anti-proliferative effect, CCK-8 method, PANC-1; assay type: cell-based; details: Homo sapiens, PANC-1
# Protocol: as §1
# HDAC1 = HDAC1 (Homo sapiens (Human), UniProt Q13547); experiment: In vitro inhibition of subtype HDAC1 (HDAC1 Inhibitor Drug Screening Kit, Biovision); assay type: biochemical; details: for inhibition at 1 µM / inhibition at 10 µM: read-out: % Inhibition towards HDAC1; for inhibitory activity against HDAC1 compared with MS-275: both concentrations 10 μM and 1 μM
# Protocol: The in vitro inhibitory activities of the compounds towards the subtype HDAC1 were tested according to the instructions in the HDAC1 Inhibitor Drug Screening Kit (Biovision).
# (1) The compounds to be tested were each individually prepared as 10 μM and 1 μM solutions and their inhibitory activities at these concentrations were tested.
# Each dilution sample was placed in two wells and the enzyme inhibition IC50 of the compound was tested.
# [4] = tested on: MDA-MB-435s human breast cancer cells; experiment: In vitro anti-proliferative effect, CCK-8 method, MDA-MB-435s; assay type: cell-based; details: Homo sapiens, MDA-MB-435S
# Protocol: as §1
# HDACs = experiment: In vitro inhibition of HDACs (HDAC Inhibitor Drug Screening Kit, Biovision K340-100); assay type: biochemical
# Protocol: The in vitro inhibitory activities of the compounds towards HDACs were tested according to the instructions in the HDAC Inhibitor Drug Screening Kit (Biovision/Catalog #K340-100).
# (1) The compounds to be tested were each individually prepared as 2 mM, 200 μM and 40 μM solutions and their inhibitory activities at these concentrations were tested.
# [5] = tested on: A549 human lung cancer cells; experiment: In vitro anti-proliferative effect, CCK-8 method, A549; assay type: cell-based; details: Homo sapiens, A549
# Protocol: as §1
# [6] = tested on: K562 human chronic myelogenous leukemia cells; experiment: In vitro anti-proliferative effect, CCK-8 method, K562; assay type: cell-based; details: Homo sapiens, K562
# Protocol: as §1
# [7] = tested on: Hep3B2.1-7 human liver cancer cells; experiment: In vitro anti-proliferative effect, CCK-8 method, Hep3B; assay type: cell-based; details: Homo sapiens, Hep3B cell strain, CCK-8 method; for inhibition at 10 µM: compound at 10 μM; for inhibition at 100 µM: compound at 100 μM
# Protocol: as §1
# [8] = tested on: Jurkat E6-1 human T-cell lymphoma; experiment: In vitro anti-proliferative effect, CCK-8 method, Jurkat E6-1; assay type: cell-based; details: Homo sapiens, Jurkat E6.1
# Protocol: as §1
# [9] = tested on: PC-3 human prostate cancer; experiment: In vitro anti-proliferative effect, CCK-8 method, PC-3; assay type: cell-based; details: Homo sapiens, PC-3 cell strain, CCK-8 method; for inhibition at 10 µM: compound at 10 μM; for inhibition at 100 µM: compound at 100 μM
# Protocol: as §1
# HDAC1, sequence (Q13547 whole entry): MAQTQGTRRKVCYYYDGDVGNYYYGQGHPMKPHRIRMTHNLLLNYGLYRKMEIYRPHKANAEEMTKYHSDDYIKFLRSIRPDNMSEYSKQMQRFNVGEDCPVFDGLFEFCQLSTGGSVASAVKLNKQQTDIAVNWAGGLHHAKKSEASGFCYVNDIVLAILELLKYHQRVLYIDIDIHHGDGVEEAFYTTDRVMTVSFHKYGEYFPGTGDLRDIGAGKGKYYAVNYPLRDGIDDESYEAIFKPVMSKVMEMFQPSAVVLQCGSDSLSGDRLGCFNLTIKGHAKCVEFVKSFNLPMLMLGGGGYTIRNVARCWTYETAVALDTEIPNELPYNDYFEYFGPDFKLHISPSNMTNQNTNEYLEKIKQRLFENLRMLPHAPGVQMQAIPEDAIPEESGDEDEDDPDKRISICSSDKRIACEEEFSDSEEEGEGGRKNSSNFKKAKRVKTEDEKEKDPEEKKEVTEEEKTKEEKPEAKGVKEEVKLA
Compound,inhibition at 10 µM [1] [%],inhibition at 100 µM [1] [%],inhibition at 10 µM [2] [%],inhibition at 100 µM [2] [%],inhibition at 10 µM [3] [%],inhibition at 100 µM [3] [%],inhibition at 1 µM (HDAC1) [%],inhibition at 10 µM (HDAC1) [%],inhibition at 10 µM [4] [%],inhibition at 100 µM [4] [%],Inhibition percentage (%) towards HDACs (HDACs; 40 μM) [%],Inhibition percentage (%) towards HDACs (HDACs; 200 μM) [%],Inhibition percentage (%) towards HDACs (HDACs; 2 mM) [%],inhibition at 10 µM [5] [%],inhibition at 100 µM [5] [%],inhibition at 10 µM [6] [%],inhibition at 100 µM [6] [%],inhibition at 10 µM [7] [%],inhibition at 100 µM [7] [%],inhibition at 10 µM [8] [%],also measured
COc1cccc2ncnc(Nc3ccc(C(=O)Nc4ccncc4N)cc3)c12 [Compound V-8],17.5,83.6,-1.8,86.4,-1.8,34.9,21.4,62.7,14.2,94.5,8.9,41.1,46.2,-5.9,38,56.9,94.5,5,90.4,36.4,IC50 (HDACs): 7.76 µM; inhibition at 100 µM [8]: 96.3%; inhibition at 10 µM [9]: 29.7%; inhibition at 100 µM [9]: 89.3%
"COc1cccc2c(Nc3ccc(C(=O)Nc4cc(F)ccc4N)cc3)ncnc12 [Compound V-10, N-(2-amino-5-fluorophenyl)-4-(8-methoxy-quinazoline-4-amino)benzamide]",8.1,47.5,6.4,23.3,13,19,45.2,62.6,9.4,82.9,12.0,32.9,77.2,-4.4,40.1,45,62.1,3.7,31.3,25.3,IC50 (HDACs): 1.04 µM; inhibitory activity according to in vitro IC50 value against HDACs compared with MS-275 (HDACs): better inhibitory activities than MS-275; inhibition at 100 µM [8]: 72.8%; inhibition at 10 µM [9]: 13.7%; inhibition at 100 µM [9]: 57.4%
"Nc1ccccc1NC(=O)c1ccc(Nc2ncnc3ccc(F)cc23)cc1 [Compound V-12, N-(2-aminophenyl)-4-(6-fluoroquinazoline-4-amino)benzamide]",62.5,62.5,2.4,46.1,15.8,21.9,15,49.1,5.7,77.2,16.8,43.0,85.2,-9,55.1,49.3,69.8,4.7,67.1,25,IC50 (HDACs): 0.92 µM; inhibition at 100 µM [8]: 87.4%; inhibition at 10 µM [9]: 25.5%; inhibition at 100 µM [9]: 61.3%
"COCCOc1cc2ncnc(Nc3ccc(C(=O)Nc4ccccc4N)cc3)c2cc1OCCOC [Compound V-15, N-(2-aminophenyl)-4-(6,7-dimethoxyethoxyquinazoline-4-amino)benzamide]",70.7,80.4,15.3,3.9,7.2,0.5,67.1,78.8,21.6,21,13.7,51.5,61.4,4.7,3.5,27.2,11.9,16.3,11.2,33.7,inhibitory activity against HDAC1 compared with MS-275 (HDAC1): superior to that of MS-275; IC50 (HDACs): 9.4 µM; inhibition at 100 µM [8]: 13.9%; inhibition at 10 µM [9]: 10.9%; inhibition at 100 µM [9]: 8.6%
COCCOc1cc2ncnc(Nc3ccc(C(=O)Nc4ccncc4N)cc3)c2cc1OCCOC [Compound V-16],26.2,20.7,-2.3,-17.1,8,7.8,59.1,87.4,49.8,50.4,24.8,56.8,58.6,48.7,65.7,42.8,29.7,24.8,13.5,37.2,inhibitory activity against HDAC1 compared with MS-275 (HDAC1): superior to that of MS-275; IC50 (HDACs): 6.89 µM; inhibition at 100 µM [8]: 22.1%; inhibition at 10 µM [9]: 5.1%; inhibition at 100 µM [9]: 3.4%
"CS(=O)(=O)CCNCc1ccc(-c2ccc3ncnc(Nc4ccc(C(=O)Nc5ccccc5N)cc4)c3c2)o1 [Compound V-19, N-(2-aminophenyl)-4-[6-(5-((2-(methylsulfonyl)ethylamino)methyl)furyl)quinazoline-4-amino]benzamide]",43,77,12.9,40.1,20.2,26.2,47.6,80.2,33,77,22.7,57.8,72.3,6.3,37.3,54.3,85.8,25.4,49.9,58.3,inhibitory activity against HDAC1 compared with MS-275 (HDAC1): superior to that of MS-275; IC50 (HDACs): 1.37 µM; inhibition at 100 µM [8]: 80.9%; inhibition at 10 µM [9]: 50.2%; inhibition at 100 µM [9]: 61%
"CC(=O)Nc1ccc2ncnc(Nc3ccc(C(=O)Nc4ccccc4N)cc3)c2c1 [Compound V-21, N-(2-aminophenyl)-4-(6-acetamidoquinazoline-4-amino)benzamide]",65.2,75.6,9.5,45.9,12.5,33.3,55,86.9,25.2,88.8,10.1,39.1,79.2,17.1,96.4,52.2,85.2,11,68.1,49.3,inhibitory activity against HDAC1 compared with MS-275 (HDAC1): superior to that of MS-275; inhibition at 100 µM [8]: 89.7%; inhibition at 10 µM [9]: 40.1%; inhibition at 100 µM [9]: 64.2%
